In US5001234A, “Cyclic hydrocarbons with an aminoalkyl sidechain” (The Upjohn Company, priority 1989, dated 1991):
Where a name gives a salt, the structure may show the parent alone.

These compounds were tested on KKA^y mice with spontaneous diabetes (assay: Blood glucose lowering in the KKA^y mouse). Settings: compound 1 mg/gram of chow, nonfasting blood glucose on day 4 of treatment.
Type: in vivo
Set-up: key: Compounds that have been found to have a phospholipase A2 inhibitory or antidiabetic effect as determined by at least one of the above assays are indicated in the Examples and Preparations which follow by the notation "PLA2" and/or "diabetes" respectively; Compounds that have been found to have a phospholipase A2 inhibitory or antidiabetic effect as determined by at least one of the above assays are indicated in the Examples and Preparations which follow by the notation "PLA2" and/or "diabetes" respectively
Protocol: All KKA^y mice used for screening are produced and selected by methods previously outlined, T. Fujita et al., Diabetes, 32 804-10 (1983). Groups of 6 animals each are employed.
Pre-treatment nonfasting blood glucose (NFBG) samples are measured 5 days prior to the start of a screening run by previously described methodologies. These blood sugar values are used to place animals into groups with equal mean blood glucose concentrations and to eliminate any mice with a NFBG value <250 mg/dl. On day 0, compounds chosen to be run are incorporated into ground mouse chow (Purina 5015). Compounds are included at a rate of 1 mg/gram of chow. Generally, 300 g of drugs containing diet is prepared for each group. Mice receiving ground chow only are the negative control. Each screening run also uses ciglitazone (T. Fujita, et al., supra) as a positive control (0.5 to 1.0 mg/gram chow).
Initial body and food weights are taken on day 1. Food is placed in a crock which contains an adequate amount to last for the length of the study. In order to acclimate the mice from pelleted mouse chow to ground mouse chow, they are fed the ground chow for 9 days prior to use in the screen. On day 4 of treatment, a NFBG sample is again measured, as well as food and body weights. Food consumption measurements are used to determine an average mg/kg dose the mice received over the testing period, and to evaluate the compound's effect on food consumption.
3. Acceptance of a Screening Run and Determination of Activity
Acceptance and activity are determined by the following criteria:
This group must not show a significant change (p<0.05) from pre-to post-treatment. If there is a significant decrease in blood sugar the run is not valid.
This group must show a significant depression in blood sugar mean levels from pre- to post-treatment. A lack of activity in this group would also invalidate the run.
C. Negative Control vs. Positive Control
This contrast must be significant. It is a further assurance that both control groups performed as expected.
A compound's activity is based on several criteria:
(1) A significant decrease in blood sugar mean levels from pre- to post-treatment.
(2) Negative control vs. compound: This contrast allows one to determine if these groups are dissimilar, which is required for the compound to be considered active.
In the case of `COc1ccc2c(c1)CC[C@@H]1[C@@H]2CC[C@]2(C)[C@@H](NCc3cccs3)CC[C@@H]12` [Example 1, 3-Methoxy-17β-[(2-thienylmethyl)amino]-estra-1,3,5-(10)-triene], the “antidiabetic effect (notation "diabetes")” value (shortened to “antidiabetic effect”) is reported as “diabetes”.
`C=CCOc1ccc2c(c1)CC[C@@H]1[C@@H]2CC[C@]2(C)[C@@H](NCc3cccc(C(F)(F)F)c3)CC[C@@H]12` [Example 2, 3-Allyloxy-17β-[((3-trifluoromethyl)phenylmethyl)-amino-estra-1,3,5(10)-triene Fumarate] was tested, and the “antidiabetic effect” value was “diabetes”.
`C[C@]12CC[C@@H]3c4ccc(OCCCO)cc4CC[C@H]3[C@@H]1CC[C@@H]2NCc1cccc(C(F)(F)F)c1` [Example 3] was tested, and the “antidiabetic effect” value was “diabetes”.
`COc1ccc2c(c1)C[C@@H](C)[C@@H]1[C@@H]2CC[C@]2(C)[C@@H](NCc3cccc(C(F)(F)F)c3)CC[C@@H]12` [Example 4, 3-Methoxy-7α-methyl-17β-[((3-trifluoromethyl)phenylmethyl)amino-estra-1,3,5(10)-triene Fumarate Hydrate] was tested, and the “antidiabetic effect” value was “diabetes”.
For `COc1ccc2c(c1)CC[C@@H]1[C@@H]2[C@@H](O)C[C@]2(C)[C@@H](NCc3cccc(C(F)(F)F)c3)CC[C@@H]12` [Example 5], the “antidiabetic effect” value was “diabetes”.
With `CN(CCc1ccc(S(N)(=O)=O)cc1)[C@H]1CC[C@H]2[C@@H]3CC[C@H]4CCCC[C@]4(C)[C@H]3CC[C@]12C` [Example 6] the “antidiabetic effect” value was “diabetes”.
With `COc1cc2c(cc1C)[C@H]1CC[C@]3(C)[C@@H](NCCc4ccc(S(N)(=O)=O)cc4)CC[C@H]3[C@@H]1CC2` [Example 7] the “antidiabetic effect” value was “diabetes”.
In the case of `C[C@]12CC=CC[C@@H]1CC[C@@H]1[C@@H]2CC[C@]2(C)[C@@H](NCCc3ccc(S(N)(=O)=O)cc3)CC[C@@H]12` [Example 8], the “antidiabetic effect” value is reported as “diabetes”.

The compounds below were run on phospholipase A2 (assay: Phospholipase A2 inhibition by at least one of two tests: inhibition of rat neutrophil aggregation, inhibition of hog pancreas PLA2). Settings: found in at least one of the assays (rat neutrophil aggregation, FMLP; hog pancreas PLA2).
Type: biochemical
Set-up: key: Compounds that have been found to have a phospholipase A2 inhibitory or antidiabetic effect as determined by at least one of the above assays are indicated in the Examples and Preparations which follow by the notation "PLA2" and/or "diabetes" respectively; Compounds that have been found to have a phospholipase A2 inhibitory or antidiabetic effect as determined by at least one of the above assays are indicated in the Examples and Preparations which follow by the notation "PLA2" and/or "diabetes" respectively
Protocol: Inhibition of Rat Neutrophil Aggregation
1. Method for Thioglycolate Broth Preparation
Weigh sufficient thioglycolate medium, USP grade, to prepare a 5% w/v solution in sterile water. Heat the solution for 10 minutes on a boiling water bath. Remove and allow the solution to cool to 20°-25°. Inject 10±0.5 ml intraperitoneally into Sprague-Dawley rats as described below.
2. Method for Rat Peritoneal Leukocyte Collection
Six (6) Sprague-Dawley, pathogen free, female rats (230-270 grams) are injected intraperitoneally with 10.0±0.5 ml thioglyco. late broth. 5% w/v […] prior to sacrifice. After sacrifice by cervical dislocation, leukocytes accumulated in the peritoneal cavity are collected by injecting 30 ml of sterile 0.9% w/v sodium chloride intraperitoneally and vigorously massaging the abdomen to assure uniform dispersion of the cells within the carcass. Use a pasteur pipet to remove approximately 20 ml of fluid with suspended cells from a small incision through the abodominal wall. Collect the cell suspension in plastic culture tubes.
3. Washing and Resuspension of Cells for Aggregation
Centrifuge the cell suspensions isolated above for 10 minutes at 1000 rpm (Sorvall RC.3, HG-4L rotor, 25° C.). Discard the supernatant. Resuspend the cells evenly in 0.9% NaCl to original volume, centrifuge a second time for 10 minutes at 1000 rpm. Discard the supernatant. […]
In the case of `CN(C)CCCO[C@H]1CC[C@H]2[C@@H](CC[C@@H]3[C@@H]2CC[C@]2(C)C(NCCCN)CC[C@@H]32)C1` (stereo partly drawn) [Example 10, N-[(3β,5α)-3-[3-(dimethylamino)propoxy]estran.17-yl]-1,3-diaminopropane], the “phospholipase A2 inhibitory effect (notation "PLA2")” value is reported as “PLA2”.
With `C[C@]12CC[C@H]3[C@@H](CC[C@H]4C[C@@H](OCCCN)CC[C@@H]43)[C@@H]1CCC2=O` [Preparation 8, N-(3β,5α)-3-(3-aminopropoxy)estran-17-one] the “phospholipase A2 inhibitory effect (notation "PLA2")” value was “PLA2”.
